In patent EP2149557A1, “Styrylquinolines, their process of preparation and their therapeutic uses” (BioAlliance Pharma, priority 2008, dated 2010):

Experiments:
HeLa-P4 cell = assay: Viability assay (cytotoxicity, MTT); assay type: cell-based; details: 2 days, comparative compound table, read-out: Cytotoxicity IC50
Procedure: (§1) The cytotoxicity of compounds was evaluated using un-infected and infected HeLa-P4 cell and CEM leukemia cells. CEM cell were obtained from the […] (Rockville, MD). A serial dilution of drugs is done to evaluate the cytotoxicity concentration and is identified by CC50 (concentration of drug which induces 50% of cytotoxicity) The HeLa-P4 was cultured in the presence or absence of compounds for 2 days. After this time period, cells were cultivated with MTT for 3 hours, further the medium is removed. And the lysis buffer is incubated for 1 hour, followed by plate reading at 540 nm in a microplate reader.

[1] = Viability assay (cytotoxicity, MTT); assay type: cell-based; details: human, HeLa-P4 cells, read-out: Cytoto -xicity IC50
Procedure: as §1

HBX2 HIV integrase [2] = target: T1, HBX2 HIV integrase (Human immunodeficiency virus type 1 group M subtype B, UniProt P04585); assay: Strand transfer assay; assay type: biochemical; details: IN 200nM, substrate DNA 12.5 nM, up to 2 h at 37°C, read-out: Transfert IC50
Procedure: The pET-15b-IN plasmid contains the cDNA encoding the HBX2 HIV integrase. His-tagged integrase protein was overexpressed in Escherichia coli BL21 (DE3) and purified under native conditions. Briefly, at an OD of 0.8, fusion protein expression was induced in bacterial cultures by the addition of IPTG (1 mM). Cultures were incubated for 3 h at 37°C, after which cells were centrifuged. The cell pellet was resuspended in ice-cold buffer A [20 mM Tris-HCl (pH 8), 1 M NaCl, 4 mM β-mercaptoethanol, and 5 mM imidazole], treated with lysozyme for 1 h on ice, and sonicated. After centrifugation (30 min at 10 000 rpm), the supernatant was filtered (0.45 µm) and incubated for at least 2 h with Ni-NTA agarose beads (Pharmacia). The beads were washed twice with 10 volumes of buffer A, 10 volumes of buffer A with 50 mM imidazole, and 10 volumes of buffer A with 100 mM imidazole. His-tagged integrase was then eluted with buffer A supplemented with 50 µM ZnS04 and 1 M imidazole. […]
Processing, strand transfer reactions were performed using U5A-U5B-2, in buffer containing 20 mM Tris (pH 7.2), 50 mM NaCl, 10 mM DTT, 10mM MgCl2. […] Gels were analyzed using a STORM Molecular Dynamics phosphorimager and quantified with Image Quant™ 4.1 software.

[3] = system: wild type HIV-1 virus (NL 4.3 strains); assay: Antiviral activity assay on Hela P4 cells (beta-galactosidase, CPRG); assay type: cell-based; details: Human immunodeficiency virus 1; HelaP4 cells, 48 hours incubation
Procedure: The antiviral activity is determined by infecting HelaP4 cells with a wild type HIV-1 virus (NL 4.3 strains at 3 ng) on cells in presence or absence of drugs. A serial dilution of drugs is done to evaluate the EC50. The effective concentration is the concentration of product at which virus replication is inhibited by 50 percent. After 48 hours incubation, the quantification is done by the evaluation of β-Galactosidase produced by the infected Hela P4 cells. The viral activity is evaluated by colorimetric assay, CPRG, followed by plate reading at 570 nm with a reference of 690 nm. The CPRG test is a colorimetric assay which allows to quantity the β-galactosidase produced by HIV-1 infected indicator cells (the β-Gal gene being under the control of the HIV-1 LTR).

HBX2 HIV integrase [4] = target: T1, HBX2 HIV integrase; assay: 3' LTR processing assay; assay type: biochemical; details: 3' processing, IN 200nM, substrate DNA 12.5 nM, up to 2 h at 37°C
Procedure: For processing, strand transfer, 100 pmol of U5B, U5B-2, respectively, were radiolabeled using T4 polynucleotide kinase and 50 µCi of [γ-32P]ATP (3000 Ci/mmol). The T4 kinase was heat inactivated, and unincorporated nucleotides were removed using a Sephadex G-10 column (GE HealthCare). NaCl was added to a final concentration of 0.1 M, and complementary unlabeled strand U5A was added to either U5B or U5B-2. The mixture was heated to 90°C for 3 min, and the DNA was annealed by slow cooling.
Processing reaction was performed using U5A-U5B, in buffer containing 20 mM Tris (pH 7.2), 50 mM NaCl, 10 mM DTT, and 10mM MgCl2. […] The reactions were stopped by phenol/chloroform extraction, and DNA products were precipitated with ethanol. The products were separated in TE containing 7 M urea and electrophoresed on an 18% denaturing acrylamide/urea gel. Gels were analyzed using a STORM Molecular Dynamics phosphorimager and quantified with Image Quant™ 4.1 software.

Structure (SMILES) | CC50 (HeLa-P4 cell) [µM] | IC50 at 2 days [1] [µM] | IC50 (HBX2 HIV integrase [2]) [nM] | IC50 [3] [µM] | IC50 (HBX2 HIV integrase [4]) [nM]
COc1cc(/C=C/c2ccc3ccc(C(=O)O)c(O)c3n2)cc(O)c1O [FZ41, reference compound] | > 100 |  |  |  | 
CC(=O)c1ccc2ccc(/C=C/c3cc(O)c(O)cc3O)nc2c1O [SQE 95, (E)-1-(8-hydroxy-2-(2,4,5-trihydroxystyryl)quinolin-7-yl)ethanone] |  | 12.5 | 199 | 13.8 | 199
